Laboratory results reported in PubChem BioAssay (NCI).
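Five compound concentrations were applied to cells in 96-well plates for 48 hours; endpoints were derived by simple linear interpolation of the resulting dose-response curve. Definition used: TGI = concentration required for complete inhibition of growth.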

Assays:
Assay in all cases: DTP human tumour cell line panel, 48 h
UO-31 renal = system: UO-31 renal
SK-OV-3 ovarian = system: SK-OV-3 ovarian
SF-539 CNS = system: SF-539 CNS
SNB-75 CNS = system: SNB-75 CNS
UACC-257 melanoma = system: UACC-257 melanoma
TK-10 renal = system: TK-10 renal
T-47D breast = system: T-47D breast
SF-295 CNS = system: SF-295 CNS
DU-145 prostate = system: DU-145 prostate
SK-MEL-5 melanoma = system: SK-MEL-5 melanoma
SF-268 CNS = system: SF-268 CNS
HL-60(TB) leukemia = system: HL-60(TB) leukemia
SN12C renal = system: SN12C renal
OVCAR-3 ovarian = system: OVCAR-3 ovarian
RXF 393 renal = system: RXF 393 renal
UACC-62 melanoma = system: UACC-62 melanoma
K-562 leukemia = system: K-562 leukemia

SMILES	TGI (UO-31 renal) [µM]	TGI (SK-OV-3 ovarian) [µM]	TGI (SF-539 CNS) [µM]	TGI (SNB-75 CNS) [µM]	TGI (UACC-257 melanoma) [µM]	TGI (TK-10 renal) [µM]	TGI (T-47D breast) [µM]	TGI (SF-295 CNS) [µM]	TGI (DU-145 prostate) [µM]	TGI (SK-MEL-5 melanoma) [µM]	TGI (SF-268 CNS) [µM]	TGI (HL-60(TB) leukemia) [µM]	TGI (SN12C renal) [µM]	TGI (OVCAR-3 ovarian) [µM]	TGI (RXF 393 renal) [µM]	TGI (UACC-62 melanoma) [µM]	TGI (K-562 leukemia) [µM]
COc1ccc(CCNC(=O)Cc2ccccc2CCO)cc1OC	> 100	> 100	> 100	> 100	> 100	> 100	> 100	> 100	> 100	> 100	> 100	> 100	> 100	> 100	> 100	> 100	> 100
COc1ccc(-c2c(N)n(-c3cc(OC)cc(OC)c3)c(=O)c3cc([N+](=O)[O-])ccc23)cc1	> 100	> 100	> 100	> 100	> 100	> 100	> 100	> 100	> 100	> 100	> 100	> 100	> 100	> 100	> 100	> 100	> 100
CC1(C)C2CCC1(C)C(NC(=O)CCN1CCOCC1)C2 (stereo unspecified)	> 100	> 100	> 100	> 100	> 100	> 100	> 100	> 100	> 100	> 100	> 100	> 100	> 100	> 100	> 100	> 100	> 100
CNNC1=NS(=O)(=O)c2cc(C(=O)OC)c(Cl)cc2S1	–	> 10	> 10	> 10	> 10	> 10	> 10	> 10	> 10	> 10	> 10	> 10	> 10	> 10	> 10	> 10	> 10
COc1ccc(-n2c(C)nc3ccc(N=Cc4ccccc4)cc3c2=O)cc1	> 100	–	–	> 100	> 100	> 100	> 100	> 100	> 100	> 100	> 100	> 100	> 100	> 100	> 100	> 100	> 100
CCOc1ccccc1N=NC1C(=O)N(C(=O)CC(=O)Nc2ccccc2Cl)N=C1C (stereo unspecified)	> 100	90.3	> 100	> 100	–	> 100	> 100	> 100	> 100	> 100	> 100	> 100	> 100	> 100	> 100	> 100	–
S=C(NNC1=NCCCCN1)Nc1ccccc1	> 100	> 100	> 100	> 100	> 100	–	> 100	> 100	> 100	> 100	> 100	> 100	> 100	> 100	–	> 100	> 100
CC(=O)NC1C(OCc2ccccc2)OC(CO)C(O)C1OCC(=O)NC(C)C(=O)NC(CCC(=O)OCCNC(=O)c1cccc2cc3ccccc3nc12)C(N)=O (stereo unspecified)	36.2	58.2	–	51.1	66.3	41.6	54.6	68.2	26.6	31.3	67	57.7	> 100	43.3	39.7	34.3	> 100
O=c1[nH]ncc2[nH]c3c(c12)CCCc1ccccc1-3	> 100	> 100	> 100	–	> 100	> 100	> 100	> 100	> 100	> 100	> 100	> 100	> 100	> 100	41.9	> 100	> 100
Cn1c2nc(=Nc3ccc(Cl)cc3)n3ccc4ccccc4c3c2c(=O)n1-c1ccccc1	> 100	–	–	> 100	> 100	> 100	> 100	> 100	> 100	> 100	> 100	> 100	> 100	> 100	> 100	> 100	> 100
Cc1nc(SCC(=O)Nc2ccccc2)c2sc(=S)n(-c3ccccc3)c2n1	–	> 10	> 10	> 10	> 10	> 10	> 10	> 10	> 10	> 10	> 10	> 10	> 10	> 10	> 10	> 10	–
O=C(C1=CCC2(CC1)OCCO2)N(Cc1ccccc1)c1ccccc1I	33.3	88.2	–	37	46.7	44.5	59.7	51.8	63.6	30.1	27.9	> 100	56	38.6	77.6	31.1	> 100
C[C@H](C(=O)N1C(=O)O[C@@H](c2ccccc2)[C@H]1C)[C@H](c1ccccc1)N(Cc1ccccc1)OC(=O)c1ccccc1	> 100	> 100	> 100	> 100	> 100	> 100	> 100	90.9	> 100	69.2	> 100	> 100	> 100	–	> 100	> 100	> 100
NC(=O)c1nnc2cc(F)c(F)cc2c1N	> 100	82.4	> 100	31.8	> 100	> 100	> 100	64.5	> 100	> 100	49.9	> 100	> 100	> 100	–	> 100	> 100
Oc1ccc2ccccc2c1N=Nc1ccc(N=Nc2ccccc2)cc1	> 100	> 100	–	> 100	> 100	> 100	> 100	> 100	> 100	> 100	> 100	12	> 100	> 100	> 100	> 100	> 100
CCOC(=O)c1c(N2CCOCC2)[nH]c(=O)c(C(c2ccc(N(C)C)cc2)c2c(O)c(C(=O)OCC)c(N3CCOCC3)[nH]c2=O)c1O	> 100	> 100	> 100	> 100	> 100	> 100	> 100	> 100	> 100	> 100	> 100	–	> 100	> 100	> 100	> 100	> 100
CN(C)CCCNC(=O)c1cc(NC(=O)CCCn2c3ccccc3c3ccccc32)cn1C	> 100	> 100	> 100	> 100	–	82	75.2	> 100	> 100	> 100	> 100	> 100	> 100	> 100	> 100	> 100	> 100
Fc1ccc(C(OCCN2CC3CC2CN3CCCc2ccccc2)c2ccc(F)cc2)cc1 (stereo unspecified)	24.7	31.7	5.12	7.2	12.7	23.7	7.21	20.9	24.3	3.39	22.4	12.3	22.1	25.5	–	23.1	–
Cc1ccc(-c2n[nH]c(=O)n2N)cc1	> 100	> 100	> 100	> 100	> 100	> 100	> 100	> 100	> 100	> 100	> 100	> 100	> 100	> 100	–	> 100	> 100
c1csc(-c2cc(-c3ccsc3)c(-c3cccs3)s2)c1	> 100	–	> 100	> 100	> 100	> 100	> 100	> 100	> 100	> 100	> 100	–	> 100	> 100	> 100	> 100	> 100
Cn1cc(C=C(C#N)C#N)c(=O)n(C)c1=O	> 100	> 100	> 100	> 100	> 100	> 100	> 100	> 100	> 100	> 100	> 100	–	> 100	> 100	> 100	> 100	–
C1CSCCSS[C@@H]2CCCCC2SC1 (stereo partly specified)	> 100	> 100	> 100	> 100	> 100	> 100	> 100	> 100	> 100	> 100	> 100	> 100	> 100	> 100	–	> 100	> 100
COC(=O)[C@@H]1C[C@H]2[C@H](c3ccccc3Br)[C@@H](OC(C)=O)[C@@H](OCc3ccccc3)ON2O1	> 100	> 100	> 100	> 100	> 100	> 100	> 100	> 100	> 100	> 100	> 100	–	> 100	> 100	> 100	> 100	> 100
CCCCNC(=O)C1=C(C)NC(C)=C(C(=O)NCCCC)C1	> 100	> 100	> 100	> 100	> 100	> 100	> 100	> 100	> 100	> 100	> 100	> 100	> 100	> 100	> 100	> 100	–
C/C(=N/NC(=S)Nc1cccc(Cl)c1)c1cccc(/C(C)=N\NC(=S)Nc2cccc(Cl)c2)n1	> 20.9	> 55.3	3.72	40.8	56	> 100	> 100	> 30	> 73.1	35	> 47.8	> 100	> 46.3	–	> 43.9	16.4	> 40.4
N#CC1(C#N)C(c2ccccc2)NC23CCCCC2C1(C#N)C(=O)N3 (stereo unspecified)	> 100	> 100	> 100	> 100	> 100	–	> 100	> 100	> 100	–	> 100	–	> 100	> 100	> 100	> 100	> 100
CCOC(=O)C1C(=O)CC(C)(O)C(C(=O)OCC)C1c1ccc(O)c(OC)c1 (stereo unspecified)	> 100	–	–	> 100	> 100	> 100	> 100	> 100	> 100	> 100	> 100	> 100	> 100	> 100	> 100	> 100	> 100
COc1cc(CSc2ccc(O)cc2)cc(O)c1O	> 100	–	85.9	> 100	> 100	> 100	53.4	51.6	> 100	–	95.9	> 100	80.5	67.6	> 100	61.2	> 100
O=c1oc2ccccc2c(O)c1C(c1ccc([N+](=O)[O-])cc1)c1c(O)c2ccccc2oc1=O	> 100	–	–	> 100	> 100	> 100	> 100	–	> 100	> 100	> 100	> 100	> 100	> 100	–	> 100	–
